Test results: patent EP0414533A1, “Use of iodopropargyl esters of alpha-amino acid derivatives as antimicrobial agents” (ROHM AND HAAS COMPANY, priority 1989, dated 1991)
Converted amounts (≈) assume the structure as drawn. Where two headings read alike, the source gives them in different places.

Tests used:
Aspergillus niger (ANIG) = assay: Minimum inhibitory concentration (MIC), broth two-fold serial dilution test; format: cell-based; details: Aspergillus niger, IIIB, trypticase soy broth (complex media); Table IIIb; read-out: MIC (F) ANIG
Botrytis cinerea (BOC) = assay: In-vitro plant fungicide test; format: cell-based; details: Botrytis cinerea, 25 ppm; Table IVa; *=Phytotoxic; read-out: % Control at 25 ppm BOC
Fusarium roseum (FUS) = assay: In-vitro plant fungicide test; format: cell-based; details: Fusarium sambucinum, read-out: % Control at 25 ppm FUS, 25 ppm; Table IVa; *=Phytotoxic
[1] = system: Cochliobolus sativus (HEL); assay: In-vitro plant fungicide test; format: cell-based; details: Bipolaris sorokiniana, 25 ppm; Table IVa; *=Phytotoxic; read-out: % Control at 25 ppm HEL
[2] = system: Phytophthora capsici (PHY); assay: In-vitro plant fungicide test; format: cell-based; details: Phytophthora capsici; 25 ppm; Table IVa; read-out: % Control at 25 ppm PHY
Pythium ultimum (PYU) = assay: In-vitro plant fungicide test; format: cell-based; details: Globisporangium ultimum; 25 ppm; Table IVa; read-out: % Control at 25 ppm PYU
Septoria nodorum (SEP) = assay: In-vitro plant fungicide test; format: cell-based; details: Parastagonospora nodorum, 25 ppm; Table IVa; read-out: % Control at 25 ppm SEP
[3] = system: Xanthomonas campestris (XAN); assay: In-vitro plant fungicide test; format: cell-based; details: Xanthomonas campestris; 25 ppm; Table IVa; read-out: % Control at 25 ppm XAN
THREE FUNGI = assay: MIC test against three fungi in Mycophile Broth, pH 5.0, read after 8 days (Table VII); format: cell-based; details: 192 h, serial dilutions from 50 ppm, read after 8 days of incubation
[4] = system: Pseudomonas fluorescens (PSFL); assay: Minimum inhibitory concentration (MIC), broth two-fold serial dilution test; details: Pseudomonas fluorescens, IIIB, read-out: MIC (G-) PSFL, trypticase soy broth (complex media); Table IIIb
Description: (§1) When the test is ready to be done, each vessel in the dilution series, except the first vessel, contains an equal volume of compound free broth. The first vessel contains twice the volume of broth with the starting concentration of test compound. One half of the broth from the first vessel is transferred to the second vessel. After being mixed, one half the resulting volume is removed from the second vessel and transferred to the third vessel. The entire cycle is repeated sufficiently to give a series of concentrations amounting to 500, 250, 125, 63, 31, 16, 8, and 4 ppm (or 100, 50, 25, 12.5, 6.2, 3.1, 1.6, and 0.8), respectively.
(§2) Each vessel is then inoculated with a cell suspension of the appropriate test organism. Bacteria are grown in broth, fungi on agar slants for a time and at a temperature appropriate to the species being tested, and algae are a mixture of green algae and blue-green bacteria grown in a nutrient media. At the end of the growth period, in the case of bacteria, the broth is vortexed to disperse the cells.
(§3) The vessels are then incubated at the appropriate temperature. After the incubation, the vessels are examined for growth/no growth.

[5] = system: Pseudomonas aerugenosa (PSAE); assay: as above; details: Pseudomonas, IIIB, read-out: MIC (G-) PSAE, trypticase soy broth (complex media); Table IIIb
Description: as §1, §2, §3

Escherichia coli (ECOL) = assay: as above; details: Escherichia coli, IIIB, read-out: MIC (G-) ECOL, trypticase soy broth (complex media); Table IIIb
Description: as §1, §2, §3

With `O=C(CNC(=O)c1ccccc1)OCC#CI` [Compound 29, N-benzoylglycine iodopropargyl ester] the MIC (Aspergillus niger (ANIG)) was 0.5 µg/mL (≈ 1.46 µM), the inhibition of growth at 25 ppm (Botrytis cinerea (BOC)) was 100% and the inhibition of growth at 25 ppm (Fusarium roseum (FUS)) was 100%. It also gave an inhibition of growth at 25 ppm [1] of 100%, an inhibition of growth at 25 ppm [2] of 100% and an inhibition of growth at 25 ppm (Pythium ultimum (PYU)) of 100%. For the same compound, the inhibition of growth at 25 ppm (Septoria nodorum (SEP)) was 100%, the inhibition of growth at 25 ppm [3] was 0% and the MIC (THREE FUNGI; Aspergillus niger, read-out: MIC ANIG) was 1.6 µg/mL (≈ 4.66 µM). The MIC (THREE FUNGI; Aureobasidium pullulans, read-out: MIC APUL) was 12.5 µg/mL (≈ 36.4 µM), the MIC (THREE FUNGI; Gloeophyllum trabeum, read-out: MIC GTRA) was 3.2 µg/mL (≈ 9.33 µM) and the MIC [4] was 32 µg/mL (≈ 93.3 µM). It also gave an MIC [5] of 125 µg/mL (≈ 364 µM) and an MIC (Escherichia coli (ECOL)) of 125 µg/mL (≈ 364 µM).
